Measured values as given in patent US8663912B2, “Fluorogenic substrate for ADAMTS13” (Washington University, priority 2011, dated 2014).
* marks the point of attachment. X1 = CC1(C)C(/C=C/C2=C(Cl)C(=C/C=C3/N(CCCCCC(=O)*)c4ccc5cc(S(=O)(=O)O)ccc5c4C3(C)C)/CCC2)=[N+](CCCS(=O)(=O)[O-])c2ccc(N(CCCS(=O)(=O)O)CCCS(=O)(=O)O)cc21; X2 = CC(C)(C)c1cc(/C=C/C=C2\N(CCCS(=O)(=O)O)c3ccc(S(=O)(=O)O)cc3C2(C)CCCC(=O)CCN2C(=O)CC(*)C2=O)c2ccc(N(CCCS(=O)(=O)[O-])CCCS(=O)(=O)O)cc2[o+]1

Key:
plasma ADAMTS13 = molecular target: T1, plasma ADAMTS13 (Homo sapiens, UniProt Q76LX8); test: Kinetics of FRETS-rVWF71 cleavage by plasma ADAMTS13 (Michaelis-Menten); type: biochemical
T1 construct: from tissue; host or cells: human plasma or serum (pooled normal plasma, healthy donors, TTP patients)
T1 sequence (Q76LX8 75-1427): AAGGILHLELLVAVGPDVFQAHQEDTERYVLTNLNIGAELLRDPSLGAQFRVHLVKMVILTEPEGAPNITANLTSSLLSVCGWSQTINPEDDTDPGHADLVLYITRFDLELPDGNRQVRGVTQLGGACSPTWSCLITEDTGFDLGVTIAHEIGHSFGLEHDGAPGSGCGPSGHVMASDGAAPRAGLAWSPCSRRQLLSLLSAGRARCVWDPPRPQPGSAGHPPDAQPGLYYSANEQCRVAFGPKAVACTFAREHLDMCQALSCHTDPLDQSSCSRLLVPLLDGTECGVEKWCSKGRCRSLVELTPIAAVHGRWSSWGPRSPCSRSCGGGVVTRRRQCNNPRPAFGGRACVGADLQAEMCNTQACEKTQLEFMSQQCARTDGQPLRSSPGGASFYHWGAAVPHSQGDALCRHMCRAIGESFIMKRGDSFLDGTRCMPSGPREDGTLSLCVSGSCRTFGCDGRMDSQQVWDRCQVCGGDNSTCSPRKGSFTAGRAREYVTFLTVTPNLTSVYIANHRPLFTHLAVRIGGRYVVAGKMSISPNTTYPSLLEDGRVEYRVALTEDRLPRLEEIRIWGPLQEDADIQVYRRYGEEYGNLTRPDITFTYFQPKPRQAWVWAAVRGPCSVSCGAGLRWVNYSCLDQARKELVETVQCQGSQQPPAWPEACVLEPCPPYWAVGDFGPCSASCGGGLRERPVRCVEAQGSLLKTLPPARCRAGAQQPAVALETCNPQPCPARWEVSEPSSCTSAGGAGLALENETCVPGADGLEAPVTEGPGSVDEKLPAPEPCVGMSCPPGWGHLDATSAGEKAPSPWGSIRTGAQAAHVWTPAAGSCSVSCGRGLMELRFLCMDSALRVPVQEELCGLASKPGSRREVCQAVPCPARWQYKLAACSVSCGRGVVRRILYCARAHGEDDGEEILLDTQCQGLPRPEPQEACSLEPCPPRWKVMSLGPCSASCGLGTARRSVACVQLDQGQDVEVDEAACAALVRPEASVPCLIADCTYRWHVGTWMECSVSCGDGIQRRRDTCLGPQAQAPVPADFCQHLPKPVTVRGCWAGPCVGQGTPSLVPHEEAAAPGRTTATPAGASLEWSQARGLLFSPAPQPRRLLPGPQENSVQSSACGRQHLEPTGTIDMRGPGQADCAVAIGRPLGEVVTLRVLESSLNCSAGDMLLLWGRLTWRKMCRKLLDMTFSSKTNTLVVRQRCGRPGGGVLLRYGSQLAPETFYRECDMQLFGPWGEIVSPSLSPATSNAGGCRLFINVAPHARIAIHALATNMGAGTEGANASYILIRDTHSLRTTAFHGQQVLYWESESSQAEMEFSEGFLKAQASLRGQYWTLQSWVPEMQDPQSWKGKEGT
Procedure: In these experiments, FRETS-rVWF71 cleavage by plasma ADAMTS13 (50 μL) was assessed in 200 μL reactions containing 50 mM HEPES, pH 7.4, 10 mM CaCl2, 150 mM NaCl, and 0.05% Tween-20, and varying concentrations of FRETS-rVWF71. The concentration of ADAMTS13 in PNP is ˜1.03 μg/ml (Feys, H. B., et al. J. Thromb. Haemost 4:955-62, 2006), or ˜6 nM for a molecular mass of 170 kDa. For each concentration of substrate, the relationship between product fluorescence and concentration was determined directly by cleaving FRETS-rVWF71 to completion with excess recombinant ADAMTS13 MDTCS (Feys, H. B., et al. J. Thromb. Haemost. 7:2088-95, 2009) and measuring the fluorescence. Control assays contained plasma that was completely deficient in ADAMTS13. The initial velocities (nM/min) as a function of substrate concentration were fitted to the Michealis-Menten equation by nonlinear regression analysis (Prism, GraphPad).
(FIG. 6). […] (Anderson, P. J., et al. J. Biol. Chem. 281:850-7, 2006).

ADAMTS13 = molecular target: T2, ADAMTS13 (Homo sapiens, UniProt Q76LX8); test: ADAMTS13 inhibitor titer assay with FRETS-rVWF71 substrate; type: biochemical; design: from tissue; host or cells: human plasma or serum (pooled normal plasma, healthy donors, TTP patients); details: TTP patients with detectable inhibitor; printed 1.4-fold to >5-fold
T2 sequence (Q76LX8 75-1427): T1 sequence (Q76LX8 75-1427)
Procedure: Plasma samples with ADAMTS13 protease activity <10% were tested for the presence of an ADAMTS13 inhibitor. Plasma samples were serially diluted two-fold with assay buffer (50 mM HEPES, pH 7.4, 150 mM NaCl, 10 mM CaCl2, and 0.05% Tween-20) to yield 8 dilutions. In duplicate, PNP (50 μL) was mixed with an equal volume (50 μL) of undiluted test plasma and each serially diluted sample. Control conditions included PNP mixed with an equal volume of cleavage buffer. The microplate containing the samples was sealed with adhesive film (Sealplate, Excel Scientific, Victorville, Calif.) and incubated at 37° C. for 1 h. Reaction was initiated by addition of 100 μL of assay buffer containing 2 μM FRETS-rVWF71. Fluorescence emission was monitored and initial reaction rates were determined.
The inhibitor titer was determined by fitting the initial reaction rates to a four parameter logistic model or sigmoidal dose response equation by nonlinear regression (Prism): Rate(D)=[…]/(1+10^((log T−log D)*H)) […]
A fixed amount of ADAMTS13 in PNP (100 μL) was preincubated with serially diluted plasma samples and assayed for ADAMTS13 activity. Reaction rates were analyzed according to a model for competitive sigmoidal dose-response inhibition to obtain the dilution of plasma at which ADAMTS13 activity is decreased by 50%, and the inverse of the dilution is the inhibitor titer (FIG. 7C). […]

Substance: X1-GQAPNLVYMVTGC(X2)PASDEIRRLPGDIQVVPIGVGPNANVQELERIGWPNAPILIQDFETLPREAPDLVLQR [FRETS-rVWF71]
- decrease of the rate of catalysis relative to FRETS-VWF73 (plasma ADAMTS13; kcat compared with FRETS-VWF73): ~8 fold
- kcat (plasma ADAMTS13; plasma ADAMTS13, 50 mM HEPES pH 7.4, 10 mM CaCl2, 150 mM NaCl, 30° C.): 0.113 s⁻¹
- inhibitor titers higher than with FRETS-VWF73 (ADAMTS13): ≥ 1.4 fold
